Converted amounts (≈) assume the structure as drawn. Read-outs that look alike come from different tables or passages of the source.
Experiments:
[1] = test system: Saccharomyces cerevisiae wild type BY4741; assay: MIC determination in Saccharomyces cerevisiae wild type BY4741; assay type: cell-based; settings: read-out: MIC
Procedure: (§1) In Vitro Antifungal Activity. MIC values for various strains were determined in accordance with the standard protocol from the National Committee of Clinical Laboratory Standards but using YEPD liquid medium instead of RPMI-1640 medium (National Committee of Clinical Laboratory Standards (Reference Method for Broth Dilution Antifungal Susceptibility Testing of Yeast, M27-A2, Approved Standard-Second Edition, Volume 22, Number 15, 1995). AmB was used as a reference. The strains were cultivated overnight in 5 mL YEPD liquid medium at 30 to 37° C. (30° C. for the strain BY4741; 37° C. for the strain DSY1764) with constant shaking. The saturated cultures were diluted to an ODB600 of 0.1 (3×10P^7 cells/mL). Using 24 wells plate, each well was prepared by adding 1% (12 μL) of DMSO solution of the tested polyene macrolide with 1% (12 μL) yeast cells solution and completed with YEPD (1.176 mL). The plates were sealed with Parafilm and then incubated for 18 to 36 hours at 30 to 37° C. (18 hours at 30° C. for the strain BY4741; 36 hours at 37° C. for the strain DSY1764). The optical density was read at 600 nm using 1.5 mL cuvettes. The MIC value was defined as the drug concentration needed to inhibit growth, less than 5% compared to a drug-free culture.
MIC values of various polyene macrolides of the invention in Saccharomyces cerevisiae wild type BY4741, a derivative of S288C, (with AmB as a reference) were determined as described hereinabove.
Based on the remarkable performance observed with the Diamine-AmB conjugate similar modifications of the aminosugar moiety were made on other polyene macrolides, such as for example Nystatin (1b) and Pimaricin (1c). The antifungal activity of these nystatin and pimaricin conjugates bearing two aminopropyl side chains was measured using Saccharomyces cerevisiae wild type BY4741.

[2] = test system: DSY-562 C. glabrata CI; assay: MIC determination in Candida strain DSY-562; assay type: cell-based
Procedure: as §1
(§2) MIC values of the polyene macrolides 3, 9 and 10 (Diamine-AmB and its ester and diamide derivative, respectively) in various Candida strains including an AmB-resistant strain C. albicans (DSY1764, with the genotype erg3AΔ::hisG/erg3BΔ::hisG erg11Δ::hisG/erg11Δ::hisG-URA3-hisG) were determined.

[3] = test system: DSY-565 C. glabrata CI; assay: MIC determination in Candida strain DSY-565; assay type: cell-based
Procedure: as §1, §2

[4] = test system: CAF2-1 C. albican wt; assay: MIC determination in Candida strain CAF2-1; assay type: cell-based, Candida albicans
Procedure: as §1, §2

[5] = test system: DSY-654 C. albican mutant cdr1/2; assay: MIC determination in Candida strain DSY-654; assay type: cell-based, Candida albicans
Procedure: as §1, §2

[6] = test system: DSY-1751 C. albican mutant erg3; assay: MIC determination in Candida strain DSY-1751; assay type: cell-based, Candida albicans
Procedure: as §1, §2

[7] = test system: DSY-1764 C. albican mutant erg3/11 (AmB-resistant strain); assay: MIC determination in AmB-resistant Candida strain DSY-1764; assay type: cell-based, Candida albicans
Procedure: as §1, §2

[8] = test system: DSY-294 C. albican CI; assay: MIC determination in Candida strain DSY-294; assay type: cell-based, Candida albicans
Procedure: as §1, §2

[9] = test system: DSY-296 C. albican CI; assay: MIC determination in Candida strain DSY-296; assay type: cell-based, Candida albicans; settings: DSY-296 C. albican CI
Procedure: as §1, §2

[10] = test system: human erythrocytes; assay: Hemolytic assay (EH50); assay type: cell-based; settings: concentration that led to 50% hemolysis of human erythrocytes; one hour at 37° C.
Procedure: Hemolytic Assay. The hemotoxicity of the polyene macrolide derivatives of the invention was determined by measuring the toxicity towards human erythrocytes (EH50 value) using an established assay (Kinsky, S. C. et al., Biochem. Biophys. Res. Comm. 1962, 9, 503). Human blood, anticoagulated with citrate or EDTA, was centrifuged (2000×g) at 4° C. for 10 minutes. The pellets were washed three times with PBS buffer (pH 7.2 with 2 g/L glucose) and then diluted to a concentration of 4% (4×10^8 cells/mL). All experiments were done in triplo and the total volume for the hemolysis tubes was 1.4 ml. The solutions were prepared by adding 1% (14 μL) of DMSO solution of the tested compound with […] of PBS buffer and completed with 750 μL of 4% erythrocytes. After one hour incubation at 37° C., the samples were centrifuged (1500×g) at 4° C. for 5 min and the absorbance of the supernatant was measured at 560 nm. The concentration that led to 50% hemolysis (EH50) was intrapolated graphically. The value for the 100% hemolysis was obtained by the treatment with 100 μM of AmB.
The toxicity of AmB (1a) and the polyene macrolides 3, 9 and 10 towards human erythrocytes was examined using the above described hemolysis assay (Table 3).

[11] = Solubility assay; assay type: physicochemical; settings: DMSO stock added to PBS buffer solution pH 7.2; precipitation point by light scattering at 600 nm
Procedure: Solubility assay. The solubility assay was performed according to Lipinski, C. A. et al Advances Drug Delivery Reviews 2001, 46, 3-26. Typically, a compound of the invention was dissolved in DMSO at a concentration of 10 μg/μl. The so obtained solution was added in […] at 1 min intervals to 2.5 ml PBS buffer solution pH 7.2. These additions correspond to solubility increments of 5 μg/ml to a top value of 65 μg/ml. A total of 14 additions were made and each time increased UV absorbance from light scattering was measured at 600 nm. The precipitation point was calculated from a bilinear curve fit to the Absorbance (y axis) versus μl of DMSO (x axis) plot.
The solubility of the polyene macrolides of the invention in water was tested following the above described protocol. Clearly, all conjugates were more soluble in water then AmB.

[12] = Saccharomyces cerevisiae wild type BY4741, YEPD liquid medium, 18 hours at 30° C.

Compound `C[C@@H]1[C@H](O)[C@@H](C)/C=C/C=C/C=C/C=C/C=C/C=C/C=C/[C@H](O[C@@H]2O[C@H](C)[C@@H](O)[C@H](N(CCCN)CCCN)[C@@H]2O)CC2O[C@](O)(C[C@@H](O)C[C@@H](O)[C@H](O)CC[C@@H](O)C[C@@H](O)CC(=O)O[C@H]1C)C[C@H](O)[C@H]2C(=O)N1CCN(C)CC1` [compound 12, 16-(N′-(1-Methylpiperazinyl)carboxamide)-N,N-di-(3-aminopropyl)-AmB] has an MIC [1, 12] of 0.2 µM (≈ 0.224 µg/mL), an MIC ([2]; Nakaseomyces glabratus) of 0.3 µM (≈ 0.336 µg/mL) and an MIC ([3]; Nakaseomyces glabratus) of 0.2 µM (≈ 0.224 µg/mL). It also gave an MIC ([4]; Candida albicans) of 0.3 µM (≈ 0.336 µg/mL), an MIC ([5]; Candida albicans) of 0.4 µM (≈ 0.448 µg/mL) and an MIC ([6]; Candida albicans) of 0.4 µM (≈ 0.448 µg/mL). It also gave an MIC ([7]; Candida albicans, 36 h) of 1 µM (≈ 1.12 µg/mL).

For `C[C@@H]1[C@H](O)[C@@H](C)/C=C/C=C/C=C/C=C/C=C/C=C/C=C/[C@H](O[C@@H]2O[C@H](C)[C@@H](O)[C@H](N)[C@@H]2O)C[C@@H]2O[C@](O)(C[C@@H](O)C[C@@H](O)[C@H](O)CC[C@@H](O)C[C@@H](O)CC(=O)O[C@H]1C)C[C@H](O)[C@H]2C(=O)O` [AmB, Amphotericin B, reference compound], the MIC [1, 12] was 0.3 µM (≈ 0.277 µg/mL), the MIC ([1]; Table 3, strain not given, values as in Table 1 (S. cerevisiae BY4741)) was 0.30 µM (≈ 0.277 µg/mL) and the MIC [8] was 0.40 µM (≈ 0.37 µg/mL). It also gave an MIC [9] of 0.40 µM (≈ 0.37 µg/mL), an MIC [2] of 0.50 µM (≈ 0.462 µg/mL) and an MIC ([3]; DSY-565 C. glabrata CI) of 0.50 µM (≈ 0.462 µg/mL). It also gave an MIC [4] of 0.30 µM (≈ 0.277 µg/mL), an MIC ([5]; DSY-654 C. albican mutant cdr1/2) of 0.50 µM (≈ 0.462 µg/mL) and an MIC ([6]; DSY-1751 C. albican mutant erg3) of 0.30 µM (≈ 0.277 µg/mL). It also gave an MIC ([7]; DSY-1764 C. albican mutant erg3/11, AmB-resistant, 36 hours at 37° C.) of 50 µM (≈ 46.2 µg/mL), an EH50 [10] of 4.0 µM and a Solubility in water [11] of 10 µg/mL (≈ 10.8 µM).
